Laboratory results from patent publication US6737383B1, “Herbicidal oxadiazolidines” (priority 1999, dated 2004).

Experiments:
sugar beet = experiment: Test B pre/postemergence sugar beet; assay type: in vivo, Beta vulgaris
Summary of the method: (§1)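 Herbicidal effect was estimated by eye on a ten-point control scale after plants spent twelve to sixteen days in a greenhouse following soil or foliar treatment. Foliar sprays targeted plants at one to four leaves; all doses were formulated in a non-phytotoxic solvent with surfactant.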

giant foxtail = experiment: Test B pre/postemergence giant foxtail; assay type: in vivo, Setaria faberii
Summary of the method: as §1

soybean = experiment: Test B pre/postemergence soybean; assay type: in vivo, Glycine max
Summary of the method: as §1

crabgrass = experiment: Test B pre/postemergence crabgrass; assay type: in vivo, Digitaria sanguinalis
Summary of the method: as §1

[1] = Postemergence, Rate 250 g/ha, scale 0 to 10, 0 no effect, 10 complete control
[2] = Postemergence, Rate 1000 g/ha, scale 0 to 10 (0 no effect, 10 complete control)
[3] = Preemergence, Rate 125 g/ha, scale 0 to 10 (0 no effect, 10 complete control)
[4] = Preemergence, Rate 250 g/ha, scale of 0 to 10 where 0 is no effect and 10 is complete control
[5] = Preemergence, Rate 500 g/ha, scale 0 (no effect) to 10 (complete control)
[6] = Rate 125 g/ha, Postemergence, scale 0 to 10, 0 no effect, 10 complete control
[7] = Rate 1000 g/ha, Preemergence, scale 0 to 10 (0 no effect, 10 complete control)
[8] = Rate 500 g/ha, Postemergence, 0 to 10 scale (0 no effect, 10 complete control)
[9] = Postemergence, Rate 62 g/ha, scale 0 to 10, 0 is no effect, 10 is complete control
[10] = Preemergence, Rate 62 g/ha, scale 0 to 10, 0 is no effect, 10 is complete control
[11] = Preemergence, Rate 31 g/ha, visual rating, scale 0 to 10 (0 no effect, 10 complete control)
[12] = Rate 31 g/ha, Postemergence, scale 0 to 10

| SMILES | Sugarbeets plant response rating (sugar beet; [1]) | Plant response rating, Sugarbeets (sugar beet; [3]) | Plant response rating, Sugarbeets (sugar beet; [4]) | Sugarbeets plant response rating (sugar beet; [5]) | Sugarbeets plant response rating (sugar beet; [6]) | Giant foxtail plant response rating (giant foxtail; [1]) | Plant response rating, Giant foxtail (giant foxtail; [3]) | Plant response rating, Giant foxtail (giant foxtail; [4]) | Giant foxtail plant response rating (giant foxtail; [5]) | Giant foxtail plant response rating (giant foxtail; [6]) | Giant foxtail plant response rating (giant foxtail; [8]) | Soybean plant response rating (soybean; [1]) | Plant response rating, Soybean (soybean; [3]) | Plant response rating, Soybean (soybean; [4]) | Soybean plant response rating (soybean; [5]) | Soybean plant response rating (soybean; [6]) | Crabgrass plant response rating (crabgrass; [1]) | Plant response rating, Crabgrass (crabgrass; [3]) | Plant response rating, Crabgrass (crabgrass; [4]) | Crabgrass plant response rating (crabgrass; [6]) | other results |
| --- | --- | --- | --- | --- | --- | --- | --- | --- | --- | --- | --- | --- | --- | --- | --- | --- | --- | --- | --- | --- | --- |
| CCN(CC)C(=O)n1oc(=O)n(-c2ccc(F)cc2)c1=O [Compound 3] | 0 | 0 | 0 | 0 | 0 | 3 | 0 | 1 | 8 | 0 | 7 | 1 | 0 | 0 | 0 | 0 | 0 | 0 | 0 | 0 | Sugarbeets plant response rating (sugar beet; [2]): 0; Plant response rating, Sugarbeets (sugar beet; [7]): 0; Giant foxtail plant response rating (giant foxtail; [2]): 8; Plant response rating, Giant foxtail (giant foxtail; [7]): 10; Soybean plant response rating (soybean; [2]): 2; Plant response rating, Soybean (soybean; [7]): 0; Crabgrass plant response rating (crabgrass; [2]): 7; Crabgrass plant response rating (crabgrass; [5]): 0; Crabgrass plant response rating (crabgrass; [8]): 6; Plant response rating, Crabgrass (crabgrass; [7]): 2 |
| COc1ccc(-n2c(=O)on(C(=O)N(c3ccc(F)cc3)C(C)C)c2=O)cc1 [Compound 5] | 4 | 0 | 0 | 0 | 3 | 7 | 7 | 8 | 9 | 1 | 4 | 5 | 0 | 0 | 0 | 5 | 6 | 3 | 3 | 3 | Sugarbeets plant response rating (sugar beet; [2]): 7; Plant response rating, Sugarbeets (sugar beet; [7]): 0; Giant foxtail plant response rating (giant foxtail; [2]): 7; Plant response rating, Giant foxtail (giant foxtail; [7]): 10; Soybean plant response rating (soybean; [2]): 6; Plant response rating, Soybean (soybean; [7]): 0; Crabgrass plant response rating (crabgrass; [2]): 6; Crabgrass plant response rating (crabgrass; [5]): 6; Crabgrass plant response rating (crabgrass; [8]): 6; Plant response rating, Crabgrass (crabgrass; [7]): 7 |
| CC(C)N(C(=O)n1oc(=O)n(-c2ccccc2OC(F)(F)F)c1=O)c1ccc(F)cc1 [Compound 14] | 0 | 0 | 0 | 0 | 0 | 0 | 9 | 9 | 9 | 0 | 3 | 2 | 0 | 0 | 0 | 2 | 0 | 0 | 9 | 0 | Sugarbeets plant response rating (sugar beet; [9]): 0; Plant response rating, Sugarbeets (sugar beet; [10]): 0; Giant foxtail plant response rating (giant foxtail; [9]): 0; Plant response rating, Giant foxtail (giant foxtail; [10]): 6; Soybean plant response rating (soybean; [9]): 2; Plant response rating, Soybean (soybean; [10]): 0; Crabgrass plant response rating (crabgrass; [9]): 0; Plant response rating, Crabgrass (crabgrass; [10]): 0; Crabgrass plant response rating (crabgrass; [5]): 9; Crabgrass plant response rating (crabgrass; [8]): 8 |
| CC(C)N(C(=O)n1oc(=O)n(-c2ccc(F)cc2F)c1=O)c1ccc(F)cc1F [Compound 22] | 0 | 4 | 7 | – | 0 | 4 | 4 | 7 | – | 2 | – | 4 | 0 | 0 | – | 3 | 9 | 4 | 8 | 4 | Sugarbeets plant response rating (sugar beet; [9]): 0; Sugarbeets plant response rating (sugar beet; [11]): 0; Plant response rating, Sugarbeets (sugar beet; [10]): 0; Giant foxtail plant response rating (giant foxtail; [9]): 0; Giant foxtail plant response rating (giant foxtail; [11]): 3; Plant response rating, Giant foxtail (giant foxtail; [10]): 3; Giant foxtail plant response rating (giant foxtail; [12]): 0; Soybean plant response rating (soybean; [9]): 3; Soybean plant response rating (soybean; [11]): 0; Plant response rating, Soybean (soybean; [10]): 0; Crabgrass plant response rating (crabgrass; [9]): 0; Crabgrass plant response rating (crabgrass; [11]): 3; Plant response rating, Crabgrass (crabgrass; [10]): 3; Crabgrass plant response rating (crabgrass; [12]): 0 |
| CCN(C(=O)n1oc(=O)n(-c2ccc(F)cc2F)c1=O)C1CCCCC1 [Compound 23] | 0 | 0 | 0 | – | 0 | 2 | 2 | 3 | – | 2 | – | 4 | 0 | 0 | – | 3 | 6 | 3 | 3 | 1 | Sugarbeets plant response rating (sugar beet; [9]): 0; Sugarbeets plant response rating (sugar beet; [11]): 0; Plant response rating, Sugarbeets (sugar beet; [10]): 0; Giant foxtail plant response rating (giant foxtail; [9]): 0; Giant foxtail plant response rating (giant foxtail; [11]): 1; Plant response rating, Giant foxtail (giant foxtail; [10]): 2; Giant foxtail plant response rating (giant foxtail; [12]): 0; Soybean plant response rating (soybean; [9]): 3; Soybean plant response rating (soybean; [11]): 0; Plant response rating, Soybean (soybean; [10]): 0; Crabgrass plant response rating (crabgrass; [9]): 0; Crabgrass plant response rating (crabgrass; [11]): 0; Plant response rating, Crabgrass (crabgrass; [10]): 3; Crabgrass plant response rating (crabgrass; [12]): 0 |
